Source: ChEMBL document CHEMBL3525920, “CYP4F enzymes are responsible for the elimination of fingolimod (FTY720), a novel treatment of relapsing multiple sclerosis” (Drug Metab Dispos, 2011)

What was measured:
[1] = test system: Liver microsome; assay: Drug metabolism in human liver microsomes assessed as metabolite formation at 50 uM treated 15 mins after antibody addition measured after 20 mins by HPLC-RA analysis in presence of CYP3A4-specific monoclonal antibody; format: ADME
[2] = Retention time of the compound by long gradient-based HPLC-RA analysis; format: physicochemical
[3] = target: T1, Cytochrome P450 2C9 (Homo sapiens, UniProt P11712); assay: Activity at CYP2C9 in human liver microsomes isolated from donors assessed as metabolite formation after 24 mins by HPLC-RA analysis; format: ADME; details: 0.4 h
T1 sequence (P11712 whole entry): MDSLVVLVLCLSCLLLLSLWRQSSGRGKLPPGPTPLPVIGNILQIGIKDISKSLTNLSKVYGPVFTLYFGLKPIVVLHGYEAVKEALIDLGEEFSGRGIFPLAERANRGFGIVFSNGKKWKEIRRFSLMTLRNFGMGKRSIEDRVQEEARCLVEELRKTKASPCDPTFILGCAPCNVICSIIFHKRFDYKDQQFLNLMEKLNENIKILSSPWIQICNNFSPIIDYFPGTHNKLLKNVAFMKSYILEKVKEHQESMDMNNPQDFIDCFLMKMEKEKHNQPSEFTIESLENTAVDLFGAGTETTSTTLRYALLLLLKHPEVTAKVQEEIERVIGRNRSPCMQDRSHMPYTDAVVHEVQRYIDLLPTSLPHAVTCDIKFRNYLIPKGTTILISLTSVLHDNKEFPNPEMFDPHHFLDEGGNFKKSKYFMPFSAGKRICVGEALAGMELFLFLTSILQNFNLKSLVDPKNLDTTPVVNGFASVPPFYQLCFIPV

[4] = test system: Liver microsome; assay: Drug metabolism in human liver microsomes assessed as metabolite formation at 50 uM treated 15 mins after antibody addition measured after 20 mins by HPLC-RA analysis in presence of CYP2D6-specific monoclonal antibody; format: ADME
[5] = test system: Liver microsome; assay: Drug metabolism in human liver microsomes assessed as total metabolite formation at 1 to 50 uM after 20 mins by HPLC-RA analysis in presence of mechanism-based CYP1A2 inhibitor furafylline and NADPH; format: ADME
[6] = test system: Liver microsome; assay: Drug metabolism in human liver microsomes assessed as metabolite M12 (2-amino-2-(4-(8-hydroxyoctyl)phenethyl)propane-1,3-diol) formation at 20 uM after 30 mins by HPLC-RA analysis in presence of NADPH; format: ADME; details: 0.5 h
[7] = target: Cytochrome P450 2C18 (Homo sapiens, UniProt P33260); assay: Activity at human recombinant CYP2C18 expressed in baculovirus-infected BTI-TN-5B1-4 insect cell microsomes assessed as metabolite formation at 5 to 100 uM after 30 mins by HPLC-RA analysis; format: ADME; details: bti-tn-5b1-4, 0.5 h
[8] = Activity at CYP4F in human liver microsomes assessed as intrinsic clearance for metabolite formation after 15 mins measured per mg protein by Eadie-Hofstee plot analysis; format: ADME; details: 0.25 h
[9] = target: Cytochrome P450 2D6 (Homo sapiens, UniProt P10635); assay: Activity at CYP2D6 in human liver microsomes isolated from donors assessed as metabolite formation after 24 mins by HPLC-RA analysis; format: ADME; details: 0.4 h
Cytochrome P450 2D6, sequence (P10635 whole entry): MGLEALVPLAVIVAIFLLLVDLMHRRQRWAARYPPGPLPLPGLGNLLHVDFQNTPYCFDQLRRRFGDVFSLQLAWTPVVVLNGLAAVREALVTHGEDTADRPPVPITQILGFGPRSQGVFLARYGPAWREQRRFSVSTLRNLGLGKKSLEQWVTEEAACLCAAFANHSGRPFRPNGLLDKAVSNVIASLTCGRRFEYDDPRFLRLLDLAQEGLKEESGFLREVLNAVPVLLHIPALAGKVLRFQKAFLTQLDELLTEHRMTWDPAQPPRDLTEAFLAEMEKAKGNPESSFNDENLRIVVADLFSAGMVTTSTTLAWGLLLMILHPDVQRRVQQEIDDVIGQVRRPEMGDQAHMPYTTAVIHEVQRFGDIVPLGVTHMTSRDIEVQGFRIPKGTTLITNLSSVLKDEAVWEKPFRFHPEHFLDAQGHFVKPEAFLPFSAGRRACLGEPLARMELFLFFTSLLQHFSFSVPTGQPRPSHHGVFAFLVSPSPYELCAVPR

[10] = target: T2, Cytochrome P450 3A4 (Homo sapiens, UniProt P08684); assay: Activity at CYP3A4 in human liver microsomes isolated from donors assessed as metabolite formation after 24 mins by HPLC-RA analysis; format: ADME; details: 0.4 h
T2 sequence (P08684 whole entry): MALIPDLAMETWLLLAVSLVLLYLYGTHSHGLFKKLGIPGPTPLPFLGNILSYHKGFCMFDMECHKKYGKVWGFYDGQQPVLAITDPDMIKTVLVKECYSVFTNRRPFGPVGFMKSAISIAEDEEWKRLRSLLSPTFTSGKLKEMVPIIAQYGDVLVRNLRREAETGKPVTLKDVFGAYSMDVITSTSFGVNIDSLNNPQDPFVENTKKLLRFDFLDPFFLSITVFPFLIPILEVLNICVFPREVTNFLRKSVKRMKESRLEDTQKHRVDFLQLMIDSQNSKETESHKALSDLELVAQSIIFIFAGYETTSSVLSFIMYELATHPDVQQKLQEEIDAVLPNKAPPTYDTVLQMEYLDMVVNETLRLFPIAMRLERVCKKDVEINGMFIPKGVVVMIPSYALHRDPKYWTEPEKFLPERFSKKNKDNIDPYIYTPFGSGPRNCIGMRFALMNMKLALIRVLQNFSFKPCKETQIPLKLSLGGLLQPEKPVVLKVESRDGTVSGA

[11] = target: Cytochrome P450 1A2 (Homo sapiens, UniProt P05177); assay: Activity at CYP1A2 in human liver microsomes isolated from donors assessed as metabolite formation after 24 mins by HPLC-RA analysis; format: ADME; details: 0.4 h
Cytochrome P450 1A2, sequence (P05177 whole entry): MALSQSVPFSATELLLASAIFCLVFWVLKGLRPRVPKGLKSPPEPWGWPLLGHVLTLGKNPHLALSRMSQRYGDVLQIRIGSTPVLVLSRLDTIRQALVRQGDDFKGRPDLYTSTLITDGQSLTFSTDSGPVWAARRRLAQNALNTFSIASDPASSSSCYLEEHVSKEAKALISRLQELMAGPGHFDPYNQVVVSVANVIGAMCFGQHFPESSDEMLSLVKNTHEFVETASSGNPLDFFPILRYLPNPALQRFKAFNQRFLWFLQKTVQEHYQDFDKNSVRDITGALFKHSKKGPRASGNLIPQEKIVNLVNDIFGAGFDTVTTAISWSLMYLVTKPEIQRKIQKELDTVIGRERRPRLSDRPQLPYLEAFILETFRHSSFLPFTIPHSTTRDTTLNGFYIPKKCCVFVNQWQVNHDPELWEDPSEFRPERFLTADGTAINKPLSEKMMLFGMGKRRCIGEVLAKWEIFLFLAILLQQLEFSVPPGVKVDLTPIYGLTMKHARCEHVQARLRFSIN

[12] = target: Cytochrome P450 4F3 (Homo sapiens, UniProt Q08477); assay: Activity at human recombinant CYP4F3A expressed in baculovirus-infected BTI-TN-5B1-4 insect cell microsomes assessed as metabolite formation at 5 to 100 µM after 30 mins by HPLC-RA analysis; format: ADME; details: bti-tn-5b1-4, 0.5 h
Cytochrome P450 4F3, sequence (Q08477 whole entry): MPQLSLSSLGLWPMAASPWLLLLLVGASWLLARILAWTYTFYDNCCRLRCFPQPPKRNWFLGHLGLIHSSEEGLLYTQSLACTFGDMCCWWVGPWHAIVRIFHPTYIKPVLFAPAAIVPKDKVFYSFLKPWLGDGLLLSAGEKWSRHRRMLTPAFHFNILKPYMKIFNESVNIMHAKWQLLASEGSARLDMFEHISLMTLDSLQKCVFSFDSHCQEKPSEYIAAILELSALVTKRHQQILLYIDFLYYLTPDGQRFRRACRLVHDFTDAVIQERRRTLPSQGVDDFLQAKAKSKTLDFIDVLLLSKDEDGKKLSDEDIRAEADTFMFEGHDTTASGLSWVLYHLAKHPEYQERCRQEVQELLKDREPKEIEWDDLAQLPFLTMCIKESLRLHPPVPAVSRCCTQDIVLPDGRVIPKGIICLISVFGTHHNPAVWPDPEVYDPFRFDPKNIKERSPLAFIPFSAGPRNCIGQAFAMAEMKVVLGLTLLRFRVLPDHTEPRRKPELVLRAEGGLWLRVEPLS

[13] = Retention time of the compound by C18 advantage armor column based LC-MS analysis; format: physicochemical
[14] = target: Cytochrome P450 1B1 (Homo sapiens, UniProt Q16678); assay: Activity at human recombinant CYP1B1 expressed in baculovirus-infected BTI-TN-5B1-4 insect cell microsomes assessed as metabolite formation at 5 to 100 uM after 30 mins by HPLC-RA analysis; format: ADME; details: bti-tn-5b1-4, 0.5 h
[15] = target: Cytochrome P450 4F12 (Homo sapiens, UniProt Q9HCS2); assay: Activity at human recombinant CYP4F12 expressed in baculovirus-infected BTI-TN-5B1-4 insect cell microsomes assessed as metabolite formation at 5 to 100 uM after 30 mins by HPLC-RA analysis; format: ADME; details: bti-tn-5b1-4, 0.5 h
[16] = Activity at FMO in human liver microsomes isolated from donors assessed as metabolite formation after 24 mins by HPLC-RA analysis; format: ADME; details: 0.4 h
[17] = test system: Liver microsome; assay: Drug metabolism in human liver microsomes assessed as total metabolite formation at 1 uM after 20 mins by HPLC-RA analysis in presence of 10 uM CYP3A4 inhibitor ketoconazole; format: ADME
[18] = test system: Liver microsome; assay: Drug metabolism in human liver microsomes assessed as total metabolite formation at 1 to 50 uM after 20 mins by HPLC-RA analysis in presence of CYP2C8 inhibitor paclitaxel; format: ADME
[19] = test system: Liver microsome; assay: Drug metabolism in human liver microsomes assessed as total metabolite formation at 1 to 50 uM after 20 mins by HPLC-RA analysis in presence of CYP2C9 inhibitor sulfaphenazole; format: ADME
[20] = target: T2, Cytochrome P450 3A4; assay: Activity at human recombinant CYP3A4 expressed in baculovirus-infected BTI-TN-5B1-4 insect cell microsomes assessed as metabolite formation at 5 to 100 uM after 30 mins by HPLC-RA analysis; format: ADME; details: bti-tn-5b1-4, 0.5 h
[21] = Retention time of the compound by symmetry C18 column based LC-MS analysis; format: physicochemical
[22] = target: Cytochrome P450 2J2 (Homo sapiens, UniProt P51589); assay: Activity at human recombinant CYP2J2 expressed in baculovirus-infected BTI-TN-5B1-4 insect cell microsomes assessed as metabolite formation at 5 to 100 uM after 30 mins by HPLC-RA analysis; format: ADME; details: bti-tn-5b1-4, 0.5 h
Cytochrome P450 2J2, sequence (P51589 whole entry): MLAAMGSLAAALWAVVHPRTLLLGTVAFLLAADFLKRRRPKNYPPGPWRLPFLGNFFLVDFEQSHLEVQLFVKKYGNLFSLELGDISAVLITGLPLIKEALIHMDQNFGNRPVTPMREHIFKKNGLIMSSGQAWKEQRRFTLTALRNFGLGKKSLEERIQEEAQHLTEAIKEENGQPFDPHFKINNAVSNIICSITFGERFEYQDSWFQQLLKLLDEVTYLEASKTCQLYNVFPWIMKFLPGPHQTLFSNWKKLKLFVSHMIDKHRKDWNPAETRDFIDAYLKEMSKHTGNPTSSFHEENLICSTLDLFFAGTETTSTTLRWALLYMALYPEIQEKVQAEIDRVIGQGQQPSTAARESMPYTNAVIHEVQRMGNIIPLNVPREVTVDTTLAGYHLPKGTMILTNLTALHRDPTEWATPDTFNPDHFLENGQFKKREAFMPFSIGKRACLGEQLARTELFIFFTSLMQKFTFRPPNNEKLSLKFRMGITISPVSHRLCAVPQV

[23] = test system: Liver microsome; assay: Drug metabolism in human liver microsomes assessed as total metabolite formation at 1 to 50 uM after 20 mins by HPLC-RA analysis in presence of CYP3A4 mechanism-based inhibitor TAO and NADPH; format: ADME
[24] = target: Cytochrome P450 2B6 (Homo sapiens, UniProt P20813); assay: Activity at CYP2B6 in human liver microsomes isolated from donors assessed as metabolite formation after 24 mins by HPLC-RA analysis; format: ADME; details: 0.4 h
Cytochrome P450 2B6, sequence (P20813 whole entry): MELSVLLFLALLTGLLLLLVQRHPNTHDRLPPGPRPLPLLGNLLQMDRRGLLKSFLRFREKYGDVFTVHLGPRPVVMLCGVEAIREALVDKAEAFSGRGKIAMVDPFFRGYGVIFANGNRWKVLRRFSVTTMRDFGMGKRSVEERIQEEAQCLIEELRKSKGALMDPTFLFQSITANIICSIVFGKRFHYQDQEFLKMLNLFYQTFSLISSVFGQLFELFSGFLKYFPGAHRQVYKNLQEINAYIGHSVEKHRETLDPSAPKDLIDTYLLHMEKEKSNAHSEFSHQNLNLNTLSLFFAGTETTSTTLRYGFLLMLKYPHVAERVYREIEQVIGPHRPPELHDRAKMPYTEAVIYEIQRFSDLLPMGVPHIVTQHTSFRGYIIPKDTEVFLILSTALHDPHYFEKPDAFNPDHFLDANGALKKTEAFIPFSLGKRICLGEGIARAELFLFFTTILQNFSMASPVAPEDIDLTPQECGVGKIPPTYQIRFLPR

[25] = Activity at CYP4A in human liver microsomes assessed as metabolite formation after 24 hrs by HPLC-RA analysis; format: ADME
[26] = test system: Liver microsome; assay: Drug metabolism in human liver microsomes assessed as total metabolite formation at 1 to 50 uM after 20 mins by HPLC-RA analysis in presence of irreversible CYP3A inhibitor azamulin; format: ADME
[27] = test system: Liver microsome; assay: Drug metabolism in human liver microsomes assessed as total metabolite formation at 1 to 50 uM after 20 mins by HPLC-RA analysis in presence of CYP2C19 inhibitor tranylcypromine; format: ADME
[28] = target: T1, Cytochrome P450 2C9; assay: Activity at human recombinant CYP2C9 expressed in baculovirus-infected BTI-TN-5B1-4 insect cell microsomes assessed as metabolite formation at 5 to 100 uM after 30 mins by HPLC-RA analysis; format: ADME; details: bti-tn-5b1-4, 0.5 h
[29] = Activity at CYP4F in human liver microsomes assessed as metabolite formation after 15 mins by Eadie-Hofstee plot analysis; format: ADME; details: 0.25 h
[30] = target: Cytochrome P450 2A6 (Homo sapiens, UniProt P11509); assay: Activity at human recombinant CYP2A6 expressed in baculovirus-infected BTI-TN-5B1-4 insect cell microsomes assessed as metabolite formation at 5 to 100 uM after 30 mins by HPLC-RA analysis; format: ADME; details: bti-tn-5b1-4, 0.5 h
Cytochrome P450 2A6, sequence (P11509 whole entry): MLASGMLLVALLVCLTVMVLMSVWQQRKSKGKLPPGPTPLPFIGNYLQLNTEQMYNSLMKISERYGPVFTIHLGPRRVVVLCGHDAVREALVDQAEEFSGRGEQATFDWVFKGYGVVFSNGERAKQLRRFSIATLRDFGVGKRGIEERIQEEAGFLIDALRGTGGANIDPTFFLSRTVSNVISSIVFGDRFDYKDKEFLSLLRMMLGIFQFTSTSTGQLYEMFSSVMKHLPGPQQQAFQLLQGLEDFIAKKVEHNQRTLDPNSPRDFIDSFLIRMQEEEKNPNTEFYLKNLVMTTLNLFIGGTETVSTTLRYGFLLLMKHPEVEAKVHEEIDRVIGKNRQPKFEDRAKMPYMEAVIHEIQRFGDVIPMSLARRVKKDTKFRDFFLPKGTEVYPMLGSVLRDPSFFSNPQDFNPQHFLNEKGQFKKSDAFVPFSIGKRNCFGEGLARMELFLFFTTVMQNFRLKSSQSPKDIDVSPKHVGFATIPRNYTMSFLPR

[31] = target: Cytochrome P450 3A7 (Homo sapiens, UniProt P24462); assay: Activity at human recombinant CYP3A7 expressed in baculovirus-infected BTI-TN-5B1-4 insect cell microsomes assessed as metabolite formation at 5 to 100 uM after 30 mins by HPLC-RA analysis; format: ADME; details: bti-tn-5b1-4, 0.5 h
Cytochrome P450 3A7, sequence (P24462 whole entry): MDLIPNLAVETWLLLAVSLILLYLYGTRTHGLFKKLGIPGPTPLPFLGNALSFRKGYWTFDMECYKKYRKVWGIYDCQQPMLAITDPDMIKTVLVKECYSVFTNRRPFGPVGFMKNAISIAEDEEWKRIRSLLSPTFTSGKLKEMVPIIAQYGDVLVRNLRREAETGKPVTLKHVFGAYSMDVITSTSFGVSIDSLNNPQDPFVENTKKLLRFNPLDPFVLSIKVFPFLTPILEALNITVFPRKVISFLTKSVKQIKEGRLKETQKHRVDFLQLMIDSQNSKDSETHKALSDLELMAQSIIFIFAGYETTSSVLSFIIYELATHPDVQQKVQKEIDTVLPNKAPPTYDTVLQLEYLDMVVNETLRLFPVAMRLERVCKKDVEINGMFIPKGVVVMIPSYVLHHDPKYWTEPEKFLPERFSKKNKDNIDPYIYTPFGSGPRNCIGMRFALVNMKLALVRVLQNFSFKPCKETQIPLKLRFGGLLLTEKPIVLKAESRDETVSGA

[32] = test system: Liver microsome; assay: Drug metabolism in human liver microsomes assessed as metabolite formation at 50 uM treated 15 mins after antibody addition measured after 20 mins by HPLC-RA analysis in presence of CYP2E1-specific monoclonal antibody; format: ADME

In the case of `CCCCCCCCc1ccc(CC[14C](N)(CO)CO)cc1.Cl`, the Drug metabolism [1] is reported as “metabolite_detected”, the Retention_time [2] is reported as 41.9 min and the Drug metabolism [3] is reported as “metabolite_not_detected”. The Drug metabolism [4] was “metabolite_detected”, the Drug metabolism [5] was “metabolite_detected” and the Drug metabolism [6] was “metabolite_detected”. For the same compound, the Drug metabolism [7] was “metabolite_not_detected”, the CLint [8] was 10 µL/min/mg and the Drug metabolism [9] was “metabolite_not_detected”. The Drug metabolism [10] was “metabolite_not_detected”, the Drug metabolism [11] was “metabolite_not_detected” and the Drug metabolism [12] was “metabolite_not_detected”. For the same compound, the Retention_time [13] was 42.7 min, the Drug metabolism [14] was “metabolite_not_detected” and the Drug metabolism [15] was “metabolite_detected”. For the same compound, the Drug metabolism [16] was “metabolite_not_detected”, the Drug metabolism [17] was “metabolite_not_detected” and the Drug metabolism [18] was “metabolite_detected”. For the same compound, the Drug metabolism [19] was “metabolite_detected”, the Drug metabolism [20] was “metabolite_detected” and the Retention_time [21] was 42.4 min. The Drug metabolism [22] was “metabolite_not_detected”, the Drug metabolism [23] was “metabolite_detected” and the Drug metabolism [24] was “metabolite_not_detected”. The Drug metabolism [25] was “metabolite_not_detected”, the Drug metabolism [26] was “metabolite_not_detected” and the Drug metabolism [27] was “metabolite_detected”. The Drug metabolism [28] was “metabolite_not_detected”, the Km [29] was 183 µM and the Drug metabolism [30] was “metabolite_not_detected”. The Drug metabolism [31] was “metabolite_not_detected” and the Drug metabolism [32] was “metabolite_detected”.
